Measured values: patent publication US7001905B2, “Substituted diarylamines as MEK inhibitors” (Warner-Lambert Company, priority 2000, dated 2006)

What was measured:
MEK = molecular target: T1, MEK (Homo sapiens, UniProt Q02750); assay: in vitro MEK assay; type: biochemical
T1 construct: no tag is given for the 2D mutant
Method in brief: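 GST-MEK (10 μg) or activated GST-MEK-2E (S218E/S222E, 5 μg) phosphorylates kinase-dead GST-MAPK-KA (K71A, 5 μg) with 10 μM [γ-32P]ATP in 50 mM Tris pH 7.5 for 15 min at 30 °C. Read-out: SDS-PAGE, autoradiography and scintillation counting of excised bands.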

T1 sequence (Q02750 whole entry S218D/S222D, form open): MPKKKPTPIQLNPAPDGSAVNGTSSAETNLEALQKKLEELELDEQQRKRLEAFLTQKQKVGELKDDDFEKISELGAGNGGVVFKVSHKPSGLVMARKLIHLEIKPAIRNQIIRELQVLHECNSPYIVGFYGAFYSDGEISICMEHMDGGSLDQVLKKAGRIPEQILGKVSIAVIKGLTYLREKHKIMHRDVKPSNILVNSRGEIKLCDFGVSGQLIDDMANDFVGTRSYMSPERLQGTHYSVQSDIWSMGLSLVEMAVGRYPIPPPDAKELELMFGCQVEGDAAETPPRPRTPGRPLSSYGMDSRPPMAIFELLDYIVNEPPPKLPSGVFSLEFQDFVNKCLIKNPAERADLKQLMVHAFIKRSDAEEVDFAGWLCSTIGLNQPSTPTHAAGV

| SMILES | melting point [°C] | IC50 (MEK) [µM] | in vitro MEK assay: % inhibition @ 1 μM (MEK; @ 1 μM) [%] |
| --- | --- | --- | --- |
| CNC(=O)c1cc2c(c(F)c1F)N(c1ccc(I)cc1C)COC2=O [Example 2, 7,8-Difluoro-1-(4-iodo-2-methyl-phenyl)-4-oxo-1,4-dihydro-2H-benzo[d][1,3]oxazine-6-carboxylic acid methylamide] | 219 to 223 | 6.6 |  |
| Cc1cc(I)ccc1Nc1c(C(=O)NOCC2CC2)cc(C(=O)N(C)C)c(F)c1F [Example 6, N^1-Cyclopropylmethoxy-4,5-difluoro-6-(4-iodo-2-methyl-phenylamino)-N^3,N^3-dimethyl-isophthalamide] | 78 to 80 | 4.3 |  |
| CNC(=O)c1cc(C(=O)NOCC2CC2)c(Nc2ccc(I)cc2C)c(F)c1F [Example 4, N^1-Cycloprolylmethoxy-4,5-difluoro-6-(4-iodo-2-methyl-phenylamino)-N^3-methyl-isophthalamide] | 198 to 202 | 1.1 |  |

Other lines, results leading:

| melting point [°C] | IC50 (MEK) [µM] | in vitro MEK assay: % inhibition @ 1 μM (MEK; @ 1 μM) [%] | SMILES |
| --- | --- | --- | --- |
| 254 to 259 | 2.4 |  | CNC(=O)c1cc(C(=O)O)c(Nc2ccc(I)cc2C)c(F)c1F [Example 3, 4,5-Difluoro-6-(-4-iodo-2-methyl-phenylamino)-N-methyl-isophthalamic acid] |
|  | 3.3 | 81 | Cc1cc(I)ccc1Nc1c(C(=O)O)cc(C(=O)NCCc2ccccn2)c(F)c1F [Example 67, 4,5-Difluoro-6-(4-iodo-2-methyl-phenylamino)-N-(2-pyridin-2-yl-ethyl)-isophthalamic acid] |
